Assay results from PubChem BioAssay (NCI).
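Interpolation was linear, between the two tested concentrations surrounding the appropriate level; five concentrations were tested over 48 hours in 96-well plates. Definition used: TGI = concentration required for complete inhibition of growth.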

Tests used:
Assay in all cases: inhibition of tumour cell growth, NCI panel, 48 h
MOLT-4 leukemia = system: MOLT-4 leukemia
SW-620 colon = system: SW-620 colon
NCI-H23 lung = system: NCI-H23 lung
OVCAR-5 ovarian = system: OVCAR-5 ovarian
NCI/ADR-RES ovarian = system: NCI/ADR-RES ovarian
A498 renal = system: A498 renal
COLO 205 colon = system: COLO 205 colon
RPMI-8226 leukemia = system: RPMI-8226 leukemia
HT29 colon = system: HT29 colon
SK-OV-3 ovarian = system: SK-OV-3 ovarian

| Structure (SMILES) | TGI (MOLT-4 leukemia) | TGI (SW-620 colon) | TGI (NCI-H23 lung) | TGI (OVCAR-5 ovarian) | TGI (NCI/ADR-RES ovarian) | TGI (A498 renal) | TGI (COLO 205 colon) | TGI (RPMI-8226 leukemia) | TGI (HT29 colon) | TGI (SK-OV-3 ovarian) |
| --- | --- | --- | --- | --- | --- | --- | --- | --- | --- | --- |
| Oc1ccc([I+]c2ccccc2)cc1O | 85.3 µM | 37.1 µM | > 100 µM | > 100 µM | > 100 µM | > 100 µM | > 100 µM | 61.4 µM | > 100 µM | – |
| COc1cccc2c(=O)oc(-c3ccc(C(C)(C)C)cc3)nc12 | 48.2 µM | > 100 µM | > 100 µM | > 100 µM | > 100 µM | > 100 µM | > 100 µM | > 100 µM | > 100 µM | > 100 µM |
| CCOC(=O)c1cn2c(nc1=O)N[C@H]1CCCC[C@@H]12 | > 100 µM | > 100 µM | > 100 µM | > 100 µM | > 100 µM | > 100 µM | > 100 µM | > 100 µM | > 100 µM | > 100 µM |
| CC1=C[C@@H]2Cc3nc4cc(Cl)ccc4c(N)c3[C@H](C1)C2 | 11.6 µM | 25.3 µM | 22.3 µM | 17.3 µM | 25 µM | 23.4 µM | 2.92 µM | 13.4 µM | 13.2 µM | 24.3 µM |
| Cc1ccc2c(c1)C(=O)C1(Cc3ccccc3C1=O)C2 (stereo not drawn) | > 100 µM | > 100 µM | > 100 µM | > 100 µM | > 100 µM | > 100 µM | > 100 µM | > 100 µM | > 100 µM | > 100 µM |
| O=C(O)CCC(=O)OC1N=C(c2ccccc2Cl)c2cc([N+](=O)[O-])ccc2NC1=O (stereo not drawn) | – | > 100 µM | > 100 µM | > 100 µM | > 100 µM | > 100 µM | – | – | > 100 µM | > 100 µM |
| CCOC(=O)c1nc2c(nc1C(=O)OCC)C(=O)c1ccccc1C2=O | 6.31 µM | 3.77 µM | – | 2.24 µM | > 35.1 µM | 4.38 µM | 4.36 µM | 6.87 µM | 9.06 µM | 5.97 µM |
| CS(=O)(=O)OCC(CCl)(CCl)CCl | > 100 µM | > 100 µM | > 100 µM | – | > 100 µM | > 100 µM | > 100 µM | – | > 100 µM | > 100 µM |
| CCC1(CC)C(=O)NN(C(=O)c2ccccc2)C1=O | > 100 µM | > 100 µM | > 100 µM | > 100 µM | > 100 µM | – | > 100 µM | > 100 µM | > 100 µM | > 100 µM |
| CCN(CC)CCN(C(=Nc1ccccc1)N1CCOCC1)c1ccccc1 | > 100 µM | > 100 µM | > 100 µM | – | > 100 µM | – | > 100 µM | > 100 µM | > 100 µM | > 100 µM |
| CCNC(=O)Cc1nc2c(N)ncnc2n1C1OC(CO)C(O)C1O (stereo not drawn) | > 100 µM | > 100 µM | > 100 µM | – | > 100 µM | > 100 µM | > 100 µM | > 100 µM | > 100 µM | > 100 µM |
| CCN(CC)CCn1c(=O)c2cccnc2n2c3c(=O)n(C)c(=O)n(C)c3nc12 | > 100 µM | > 100 µM | > 100 µM | > 100 µM | > 100 µM | – | > 100 µM | > 100 µM | > 100 µM | > 100 µM |
| CC1=NN(c2cccc(Cl)c2)C2(SCC(=O)N2c2nc3ccccc3s2)/C1=C\c1ccccc1O (stereo not drawn) | 42.3 µM | 35.8 µM | 41.3 µM | > 100 µM | 55.5 µM | 38.4 µM | – | 40.3 µM | 67.4 µM | 51.3 µM |
| CC1CCC(C(=O)O)(C(Br)C(=O)O)CC1 (stereo not drawn) | > 100 µM | > 100 µM | > 100 µM | > 100 µM | > 100 µM | – | – | > 100 µM | > 100 µM | – |
| Cc1nc(N)c(N2CCN([N+](=O)[O-])CC2)c(=O)[nH]1 | > 100 µM | > 100 µM | > 100 µM | > 100 µM | > 100 µM | > 100 µM | > 100 µM | > 100 µM | > 100 µM | – |
| NS(=O)(=O)c1cc2c(cc1Cl)NC(CCC(=O)O)=NS2(=O)=O | – | > 100 µM | > 100 µM | > 100 µM | > 100 µM | > 100 µM | > 100 µM | > 100 µM | > 100 µM | > 100 µM |
| O=C(O)c1ccccc1CC1Cc2ccccc2C1=O (stereo not drawn) | > 100 µM | > 100 µM | > 100 µM | > 100 µM | > 100 µM | – | > 100 µM | > 100 µM | > 100 µM | > 100 µM |
| CC(=N/N=C/c1ccccn1)/C(C)=N/N=C(C)/C(C)=N/N=C(C)/C(C)=N/N=C(C)/C(C)=N\N=C\c1ccccn1 | – | > 100 µM | > 100 µM | > 100 µM | > 100 µM | > 100 µM | > 100 µM | > 100 µM | > 100 µM | > 100 µM |
| O=c1c2sc(=S)n(-c3ccc(F)cc3)c2ncn1/N=C/c1ccc(F)cc1F | – | > 100 µM | > 100 µM | > 100 µM | > 100 µM | 58.2 µM | > 100 µM | > 100 µM | > 100 µM | 53.7 µM |
| [O-][n+]1ccccc1Sc1nc(Sc2cccc[n+]2[O-])nc(Sc2cccc[n+]2[O-])n1 | – | – | 3.87 µM | 3.61 µM | 29.1 µM | 8.37 µM | 2.3 µM | – | 2.61 µM | 18.6 µM |
| Cc1cc(N(CCOS(C)(=O)=O)CCOS(C)(=O)=O)ccc1C=O | 14.8 µM | > 100 µM | 36.9 µM | 33.8 µM | 60.5 µM | 7.29 µM | 4.39 µM | > 100 µM | > 100 µM | – |
| CSc1nsc(-c2ccccc2)[s+]1 | > 100 µM | > 100 µM | – | – | – | > 100 µM | > 100 µM | > 100 µM | – | > 100 µM |
| COc1ccc(-c2nc(SCC(=O)N/N=C/c3ccc(N(C)C)cc3)[nH]c2-c2ccc(OC)cc2)cc1 | – | > 100 µM | > 100 µM | > 100 µM | > 100 µM | > 100 µM | 24.5 µM | – | > 100 µM | > 100 µM |
| COc1cc(/C=C/C(=O)CC(=O)/C=C/c2ccc(OC(=O)CCCCC3CCSS3)c(OC)c2)ccc1OC(=O)CCCCC1CCSS1 (stereo not drawn) | > 100 µM | > 100 µM | > 100 µM | > 100 µM | > 100 µM | – | > 100 µM | > 100 µM | > 100 µM | > 100 µM |
